Measurements taken from patent US20060122432A1, “Aryl piperidine derivatives and use thereof to reduce elevated levels of ldl-cholesterol” (priority 2002, published 2006).
Counter-ions that a name gives are not always drawn.

How the values were obtained:
LDL-r promoter = LDL-r promoter luciferase reporter assay in HepG2 cells; assay type: cell-based; details: Homo sapiens; HepG2 cells stably transfected with LDL-r promoter-luciferase construct, 24 hours incubation, 2% lipoprotein-deficient serum; read-out: EC50 induction of luciferase activity
Experimental: HepG2 cells, stably transfected with a construct comprising the LDL-r promoter and the luciferase reporter gene, were seeded at 50.000 cells/well in 96 well plates. After 1 day, cells were incubated with compounds for 24 hours in RPMI medium containing 2% of lipoprotein-deficient serum. Compounds were tested from […]. Cell lysates were prepared and the luciferase activity was measured by the luciferase assay system (Promega). Induction of luciferase activity was calculated taking untreated cells as control. The ED50 of each compounds was determined compared to the ED50 of an internal standard.

EC50 (LDL-r promoter) [nM] | melting point [°C] | SMILES
13 | – | Cc1nc(-c2ccc(Cl)cc2Cl)sc1C(=O)NCCCCN1CCC(c2ccc3c(c2OCCO)CCCC3)CC1 [Example 8, 2-(2,4-dichloro-phenyl)-4-methyl-thiazole-5-carboxylic acid (4-{4-[1-(2-hydroxy-ethoxy)-5,6,7,8-tetrahydro-naphthalen-2-yl]-piperidin-1-yl}-butyl)-amide]
5 | 216 | CS(=O)(=O)Nc1ccc(-c2ccc(C(=O)NCCCCN3CCC(c4ccc5c(c4OCCO)CCCC5)CC3)cc2)cc1 [Example 12, 4′-Methanesulfonylamino-biphenyl-4-carboxylic acid (4-{4-[1-(2-hydroxy-ethoxy)-5,6,7,8-tetrahydro-naphthalen-2-yl]-piperidin-1-yl}-butyl)-amide]
– | 188 | Cc1nc(-c2ccc(C#N)cc2)sc1C(=O)NCCCCN1CCC(c2ccc3c(c2OCCO)CCCC3)CC1 (as salt: hydrochloride) [Example 7, 2-(4-Cyano-phenyl)-4-methyl-thiazole-5-carboxylic acid (4-{4-[1-(2-hydroxy-ethoxy)-5,6,7,8-tetrahydro-naphthalen-2-yl]-piperidin-1-yl}-butyl)-amide, hydrochloride]
– | 157 to 159 | O=C(NCCCCN1CCC(c2ccc3c(c2OCCO)CCCC3)CC1)c1sc(-c2ccc(C(F)(F)F)cc2)nc1CO [Example 3, 4-Hydroxymethyl-2-(4-trifluoromethyl-phenyl)-thiazole-5-carboxylic acid (4-{4-[1-(2-hydroxy-ethoxy)-5,6,7,8-tetrahydro-naphthalen-2-yl]-piperidin-1-yl}-butyl)-amide]
